pEC50: −log10 of the molar value. Some results are limits rather than exact numbers.

Series [1] in a line: THP1-Dual cytotoxicity (Cell Titer Glo, ATP). The series is classed as cell-based, human. Conditions: human, THP1-Dual cells, Human Reporter Cell Line THP1; read-out: Thp1 cytotox CC50. In a few lines:
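Human THP1-Dual cells were treated across an 8-point dose-response range. Cytotoxicity was measured in-plate by CellTiter-Glo luminescence, which quantifies ATP as a marker of metabolically active cells, and CC50 was taken as the 50% cytotoxic concentration.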

The subject of series [2] is NF-κB-SEAP reporter in J774-Dual cells. In words: J774-Dual NF-κB-SEAP reporter assay. Conditions: Mus musculus, J774, Mouse Reporter Cell Line J774; read-out: J774 NFkB EC50. The series is classed as cell-based, mouse. On the procedure:
First, optimal assay conditions and assay quality in 384-well format were determined. As mentioned, the mouse macrophage J774 cell line (J774-Dual, InvivoGen) stably transfected with the same inducible reporters described above (e.g., IRF-Lucia luciferase and NF-κB-SEAP) was used. The responsiveness of the J774-Dual cell line was investigated in an array of assay conditions to obtain sensitive and reproducible results for the activation of the IRF and NF-κB reporters. An optimal plating density and conditions for these cells was established for these cells in a 384-well format. Assay work-flow is similar to that discussed above for the THP1-Dual assay without a need for cell differentiation. Thus, cells are seeded directly in growth medium and incubated at 37° C. in a 5% C02 incubator for 24 hours prior to the programmed treatments being added as described herein.
The primary high throughput screen used the HTS platform of human THP1 monocyte cells containing the IRF-Lucia luciferase and NFκB-SEAP (secreted embryonic alkaline phosphatase) dual reporter (THP1-Dual, Invivogen), enabling the simultaneous study of the IRF and NFκB signaling pathways respectively. As discussed, the Lucia luciferase reporter gene is under the control of an ISG54 (interferon-stimulated gene) minimal promoter in conjunction with five interferon-stimulated response elements (ISRE). The SEAP gene is driven by an IFNβ minimal promoter fused to five copies of the NFκB consensus transcriptional response element and three copies of the c-Rel binding site. Both IRF-Lucia luciferase and NFκB-SEAP reporter proteins are secreted and readily measurable in the cell culture supernatant when using QUANTI-Luc™ and QUANTI-Blue™ detection reagents, respectively. Identified “hits” were confirmed in a secondary screen with an 8-point dose response curve. Hits were further screened for activity in the mouse using the mouse J774 macrophage-like cell line containing the identical reporter constructs (J774-Dual, Invivogen).
The OTRADI Small Molecule Library of approximately 246,000 diverse compounds (see below for description) was screened using the THP1-Dual based HTS platform described above. All transfer steps in the screen are fully automated, thus reducing variability. Primary screening included a single data point or dose for each molecule. After data normalization was applied for each assay run, “hit” selection was performed on the plates that pass the quality control (QC) criterion. Hits were defined as samples having values above the activity cutoff determined based on noise level of the assay to reduce false positive rates. In the pilot study discussed above this activity value was >3σ above the ISRE mean with the added criteria of NFκB activation being lower than […] from the mean to identify IRF selective compounds. The ratio of ISRE:NFκB activity was also calculated as a selectivity index for prioritizing hit selection. Primary hits underwent secondary screening to determine the 50% effective concentration (EC50) and 50% cytotoxic concentration (CC50) of these agents using an 8-point dose-response curve in the human THP1-Dual cells. Cytotoxicity was measured in the plate using Cell Titer Glo (Promega). Identified candidate compounds were further screened (orthogonal screen) for cross species activity in the validated mouse J774-Dual assay using an 8-point dose-response format to determine EC50 and CC50 values as well as ISRE:NFκB ratios. A general process flow for the experimental design laid out above is depicted at FIG. 12.

A further series in a line: J774-Dual cytotoxicity. The series is classed as cell-based, mouse. Conditions: mouse, J774-Dual cells, Mouse Reporter Cell Line J774; read-out: J774 cytotox CC50. In short, it runs like this: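 Orthogonal cross-species screen in mouse J774-Dual cells using 8-point dose-response format. Cytotoxicity measured in-plate by CellTiter-Glo luminescence, giving CC50 alongside EC50 and ISRE:NFκB ratios.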

For `COc1ccc(C(=O)Nc2cccc(-c3nc4ncccc4o3)c2)cc1Br` [ND-47], the CC50 (in series [1]; in “J774-Dual cytotoxicity”) was more than 25 µM in each case. In series [2], the pEC50 was 5.01.
Consider `COCOc1ccc2oc(-c3ccc(C)c(NC(=O)c4ccc(OC)c([N+](=O)[O-])c4)c3)nc2c1` [ND-95, 4-methoxy-N-(5-(5-(methoxymethoxy)benzo[d]oxazol-2-yl)-2-methylphenyl)-3-nitrobenzamide], for which the values for the 50% cytotoxic concentration (CC50) (in series [1]; in “J774-Dual cytotoxicity”) were 26.7 µM and more than 25 µM, respectively. In addition, in series [2], the negative-log EC50 (pEC50) was 5.52.

Source of the values: US20220395500A1, “SMALL MOLECULE ACTIVATORS OF INTERFERON REGULATORY FACTOR 3 AND METHODS OF USE THEREOF” (Neuralexo, Inc., priority 2020, published 2022).
